Data: patent US10105401B2, “Composition comprising bioactive amino acids and/or peptides and marine oil in a stable oil-in-water emulsion, and the use of said composition as a functional or therapeutic composition” (SMARTFISH AS, priority 2009, dated 2018)

Assays:
[1] = when supplemented as part of Smartfish; skeletal muscle, heart, brain
Method: The tissues were finally analyzed for the content of carnosine, both labeled and non-labeled.
This amount equals 200 mg/kg per day. After one week, the following organs were dissected out; gastrocnemius, heart and brain and immediately frozen in liquid nitrogen, and stored at −80° C.
Carnosine (Sigma-Aldrich) and 15N13C2-labeled carnosine (Sigma-Aldrich) concentrations in tissue were determined by HPLC-MS/MS operated in MRM mode.
Mouse tissues were homogenized in Methanolic HCL using a pellet grinder with cordless motor (Kontes). The homogenate was incubated for 30 min at 50° C. This procedure homogenized the tissue, precipitated proteins and methylated the carboxcylic acid group.
After centrifugation, the supernatant were injected directly into the LC-MS/MS system. Calibrators were prepared by methylation of non labeled carnosine in methanolic HCl. The HPLC column used was a Zorbax XDB 150×4.6 mm ID with 5 μm particles. A gradient elution starting with 10% MeOH in water and 4 g/l ammonium acetate 40% MeOH for 3 minutes changing linearly to 100% methanol over 3.5 minutes was used to separate carnosine from other constituents.

[2] = cited from earlier work

What does the source list for `NCCC(=O)O` [β-alanine]?
bioavailability and tissue uptake of β-alanine [1]: bioavailable and taken up by all the three target tissues; reduction of muscle carnosine levels per week in washout ([2]; human volunteers, nine week washout after six weeks of β-alanine): 2.5-3.5 % reduction/week; average increase in muscle carnosine ([2]; humans, six week period, 4.8 g β-alanine per day): 27%
